The source of these data is article PMC8955197, “Polyketide Derivatives from the Endophytic Fungus Phaeosphaeria sp. LF5 Isolated from Huperzia serrata and Their Acetylcholinesterase Inhibitory Activities” (Journal of Fungi, 2022).

What is called IC50 is the midpoint of a concentration-inhibition curve.

Chain of AChE (P22303 32-614): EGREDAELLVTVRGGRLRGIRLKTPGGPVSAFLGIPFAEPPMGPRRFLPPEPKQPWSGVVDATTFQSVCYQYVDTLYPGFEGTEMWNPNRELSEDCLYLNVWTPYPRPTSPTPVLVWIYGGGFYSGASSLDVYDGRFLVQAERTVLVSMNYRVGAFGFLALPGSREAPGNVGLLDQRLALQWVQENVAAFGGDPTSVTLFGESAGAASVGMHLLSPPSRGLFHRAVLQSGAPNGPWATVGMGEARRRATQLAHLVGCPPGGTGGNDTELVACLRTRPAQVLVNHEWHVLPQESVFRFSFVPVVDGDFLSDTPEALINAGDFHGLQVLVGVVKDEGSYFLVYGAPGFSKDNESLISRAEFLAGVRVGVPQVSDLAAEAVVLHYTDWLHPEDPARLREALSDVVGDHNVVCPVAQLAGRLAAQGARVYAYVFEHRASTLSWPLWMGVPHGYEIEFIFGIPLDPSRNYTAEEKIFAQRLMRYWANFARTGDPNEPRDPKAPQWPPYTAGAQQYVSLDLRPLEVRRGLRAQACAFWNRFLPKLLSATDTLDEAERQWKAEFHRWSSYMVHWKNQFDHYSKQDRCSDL

For this experiment, the target named is AChE (Homo sapiens, UniProt P22303). As to the kind of experiment: biochemical. To be noted: mean ± SD of three parallel measurements; phosphate buffer pH 7.7, 25 °C; read-out: IC50 (µM), acetylcholinesterase inhibitory activity. As for the experimental part:
The assay was carried out in a 96-well microtiter plate reader. […] The mixture was incubated for 5 min at 25 °C. […] Percent inhibition was calculated through the following formula: (control absorbance–sample absorbance)/control absorbance × 100. The IC50 values were the means ± SD of three determinations.
As for `C/C(=C\C(=O)O)CCO` [Compound 5, E-Δ^2-anhydromevalonic acid], the IC50 was greater than 100 µM.

Regarding `CC1=CC(=O)OCC1` [Compound 6, 4-methyl-5,6-dihydropyren-2-one], the IC50 was greater than 100 µM.

Take `CC1C=C(CC(=O)O)C(=O)O1` (centres unmarked) [Compound 2, 2-(5-methyl-2-oxo-2,5-dihydrofuran-3-yl)-acetic acid]: the IC50 was greater than 100 µM.

As for `C[C@@H](O)Cc1cc2cc(O)cc(O)c2c(=O)o1` [Compound 11, de-O-methyldiaporthin], the IC50 was 21.2 ± 1.53 µM.

As for `CC(O)C(O)c1cc2cc(O)cc(O)c2c(=O)o1` (stereo not drawn) [Compound 9, 6,8-dihydroxy-3-(1′R, 2′R-dihydroxypropyl)-isocoumarin], the IC50 is greater than 100 µM.

For the compound `C[C@@H]1C=C(C[C@@H](O)[C@H](C)O)C(=O)O1` [Compound 4], the IC50 worked out at 6.26 ± 0.15 µM.

For the compound `C[C@@H]1Cc2cc(O)cc(O)c2C(=O)O1` [Compound 8, (R)-6-hydroxymellein], the IC50 was greater than 100 µM.

As for `COc1cc(O)cc2cc(C)oc(=O)c12` [Compound 10, 6-hydroxy-8-methoxy-3-methylisocoumarin], the half-inhibitory concentration (IC50) was greater than 100 µM.

In the case of `CC1C=C(CO)C(=O)O1` (centres unmarked) [Compound 1, 3-(hydroxymethyl)-5-methylfuran-2(5H)-one], the IC50 is greater than 100 µM.

As to `Cc1cc(C(=O)O)cc(C(C)O)n1` (centres unmarked) [Compound 7, 2-(1-hydroxyethyl)-6-methylisonicotinic acid], the IC50 is greater than 100 µM.

As for `COC(=O)CC1=CC(C)OC1=O` (centres unmarked) [Compound 3, methyl-2-(5-methyl-2-oxo-2,5-dihydrofuran-3-yl)-acetate], the IC50 is greater than 100 µM.
